Results published in patent publication US8697387B2, “Methods for identifying agents and their use for the prevention of restenosis” (DiscoverRx Corporation, priority 2006, dated 2014).
Where a name gives a salt, the structure may show the parent alone. *1 amine or outer side, *2 acyl side, *3 side chain or, on linkers, in order; H or OH if unused. Where a SMILES comes first, the peptide text is derived from it. Bridges are numbered along the chain shown (N, C = ends). Roman numbers before positions name the chains, in order. [ ]: non-standard residue; d: D form. Actinocin(9to1) = Cc1c2oc3c(C)ccc(C(=O)[*:1])c3nc-2c(C(=O)[*:2])c(N)c1=O; NMeV = CN[C@H](C(=O)O)C(C)C; Sar = CNCC(=O)O

Tests used:
[1] = test system: BioMAP Systems (human primary cell-based assay systems: endothelial cells, smooth muscle cells, PBMC, fibroblasts); assay: BioMAP Systems screen scored for desired anti-restenosis parameter modulation; details: for Total score for desired parameter modulation, Score (out of 45): 1 point per desired activity present across BioMAP systems of Table 2, paclitaxel average of 11 runs, rapamycin average of 13 runs
From the text: The BioMAP Systems that model the relevant biological processes (smooth muscle cell hyperplasia, tissue remodeling, inflammation etc, including the measurements of readout parameters listed in Table 1), and are used for screening are listed in Table 2. Each of the cells listed in Table 1 can be utilized in one or more of the systems described below. For example, smooth muscle cells are used in CASM3C; CASMNo; SM3C and SMNo systems. Such BioMap systems are generally primary human cell based assays. Compounds are screened in one or more such BioMap systems, usually in at least about two such systems, and may be screened in at least three, at least four, at least five, at least ten, and up to all of the assays set forth in Table 2.
These assays are scored according to their modulation of the selected readout parameters.
Human umbilical vein endothelial cells (HUVEC) were pooled from multiple donors, cultured according to standard methods, and plated into microtiter plates at passage 4. Human neonatal foreskin fibroblasts (HDF) from 3 donors were pooled and cultured according to standard methods. 24 hr before stimulation with cytokines, confluent HDF in microtitre plates were serum starved. Coronary artery endothelial cells (CAEC), coronary artery smooth muscle cells (CASMC) and umbilical artery smooth muscle cells (SMC) cultured according to standard methods. Peripheral blood mononuclear cells (PBMC) were prepared from buffy coats from normal human donors according to standard methods. Concentrations/amounts of agents added to confluent microtitre plates to build each system were as follows: cytokines (IL-1 beta, 1 ng/ml; TNF-alpha, 5 ng/ml; IFN-gamma, 20 ng/ml; TGF-beta, 5 ng/ml; IL-4, 5 ng/ml), activators (histamine, 10 microM; SAg, 20 ng/ml or LPS, 0.2 ng/ml), PBMC (7.5×10^4 cells/well).
Compounds were prepared in the solvent as directed, added 1 hr before stimulation of the cells, and were present during the 24 hr stimulation period for the measurement of parameters listed in Table 2. For proliferation, compounds added 1 hr before stimulation of the cells with cytokines, and were present during the 96 hr. If prepared in DMSO, the final concentration of solvent was 0.1% or less.
The levels of readout parameters were measured by ELISA. Briefly, microtiter plates are treated, blocked, and then incubated with primary antibodies or isotype control antibodies (0.01-0.5 microg/ml) for 1 hr. After washing, plates were incubated with a peroxidase-conjugated anti-mouse IgG secondary antibody or a biotin-conjugated anti-mouse IgG antibody for 1 hr followed by streptavidin-HRP for 30 min. Plates were washed and developed with TMB substrate and the absorbance (OD) was read at 450 nm (subtracting the background absorbance at 650 nm). Quantitation of TNF-alpha in the LPS system was done using a commercially available kit according to the manufacturer's directions. Proliferation of endothelial cells (HUVEC and CAEC), smooth muscle cels (SMC and CASMC), and PBMC (T cells) was quantitated by Alamar blue or SRB reduction.
Mean OD values for each parameter were calculated from triplicate samples per experiment. The mean value obtained for each parameter in a treated sample was then divided by the mean value from an appropriate control to generate a ratio. All ratios were then log10 transformed. 99% prediction envelopes (grey shading in Figures) were calculated for historical controls.

[2] = test system: BioMAP Systems cells (SRB total protein, PBMC viability, cell morphology); assay: Toxicity assessments in BioMAP Systems (SRB, PI, visual)
Method: Adverse effects of compounds on cells were determined by (1) measuring alterations in total protein (Sulforodhamine B or SRB assay); (2) measuring the viability of peripheral blood mononuclear cells (incorporation of propidium iodide, PI); and (3) microscopic visualization. SRB was performed by staining cells with 0.1% sulforhodamine B after fixation with 10% TCA, and reading wells at 560 nm. PBMC viability was assessed by adding propidium iodide (10 microgram/ml) to PBMC that had been cultured for 24 hours in the presence of activators and measuring the percentage of cells that incorporated dye by flow cytometry after 10 minutes. Samples were assessed visually according to the following scheme: 2.0=cobblestone (unactivated phenotype); 1.0=activated (normal phenotype); 0.5=lacy or sparse; 0.375=rounded; 0.25=sparse and granular; 0.1=no cells in well.
Cellular toxicity in BioMAP Systems is indicated if the SRB parameter (sulforhodamine B, measure of total protein loss) is <−0.3, the PI parameter (propidium iodine, measure of lymphotoxicity) is <−0.1, and the Visual parameter (change in cell morphology) is <−0.6.

[3] = test system: neointimal hyperplasia after balloon vascular injury; details: rat; reported by Pan et al., 2003; cited from earlier work
[4] = test system: smooth muscle cell proliferation relative to endothelial cell proliferation; assay: Proliferation of smooth muscle cells relative to endothelial cells in BioMAP systems 3C, SM3C, CANo, CASMNO, CA3C, CASM3C; type: cell-based, human; details: all conditions, all doses tested, independent of source of primary cells
From the text: One can further refine the selection of drugs for the treatment of restenosis by measuring their relative effects at multiple doses on proliferation of smooth muscle cells and endothelial cells derived from different sources (umbilical cord or coronary artery), and under different growth conditions (proliferation driven by growth factors only, or in the presence of pro-inflammatory factors that are normally found at the restenotic site). Statistical analysis of cell proliferation in BioMAP systems 3C, SM3C, CANo, CASMNO, CA3C, and CASM3C listed in Table 1 was performed for candidate drugs 8-Azaguanine, Amodiaquin Dihydrochloride Dihydrate, Atovaquone, Ciclopirox, Cis-(Z)-Flupentixol Dihydrochloride, Clofilium Tosylate, Monobenzone, Primaquine Diphosphate, Securinine, Syrosingopine, Terconazole, and Trimethylcolchicinic Acid. […]
The levels of readout parameters were measured by ELISA. […] Plates were washed and developed with TMB substrate and the absorbance (OD) was read at 450 nm (subtracting the background absorbance at 650 nm). Quantitation of TNF-alpha in the LPS system was done using a commercially available kit according to the manufacturer's directions. Proliferation of endothelial cells (HUVEC and CAEC), smooth muscle cels (SMC and CASMC), and PBMC (T cells) was quantitated by Alamar blue or SRB reduction. […]

Row | Compound | Total score for desired parameter modulation, Score (out of 45) [1] | other results
1 | CC(=O)N(O)CCCCCNC(=O)CCC(=O)N(O)CCCCCNC(=O)CCC(=O)N(O)CCCCCN [Deferoxamine Mesylate] | 26 | 
2 | C[C@@H]1C[C@H]2[C@@H]3CCC4=CC(=O)C=C[C@]4(C)[C@@]3(F)[C@@H](O)C[C@]2(C)[C@@]1(O)C(=O)CO [dexamethasone] |  | Signs of toxicity in BioMAP Systems [2]: no signs of toxicity
3 | Cc1cc(C2CCCCC2)n(O)c(=O)c1 [Ciclopirox Ethanolamine] | 20 | 
4 | O=c1ccc2cc(O)c(O)cc2o1 [Esculetin] | 25 | Effect on neointimal hyperplasia after balloon vascular injury [3]: inhibit neointimal hyperplasia
5 | Oc1ccc(OCc2ccccc2)cc1 [Monobenzene] | 24 | 
6 | COc1cc2c(c(OC)c1OC)-c1ccc(O)c(=O)cc1C(N)CC2 (stereo not drawn) [Trimethylcolchicinic Acid] | 29 | Preferential effect on smooth muscle cell versus endothelial cell proliferation [4]: preferential effect on smooth muscle cells over endothelial cells
7 | O=C(O)CCCc1ccc(N(CCCl)CCCl)cc1 [Chlorambucil] | 30 | 
8 | CO[C@H]1C[C@@H]2CC[C@@H](C)[C@@](O)(O2)C(=O)C(=O)N2CCCC[C@H]2C(=O)O[C@H]([C@H](C)C[C@@H]2CC[C@@H](O)[C@H](OC)C2)CC(=O)[C@H](C)/C=C(\C)[C@@H](O)[C@@H](OC)C(=O)[C@H](C)C[C@H](C)/C=C/C=C/C=C/1C [Rapamycin] | 24 ± 1 | Signs of toxicity in BioMAP Systems [2]: no signs of toxicity
9 | Cl.Cl.OCCN1CCN(CC/C=C2/c3ccccc3Sc3ccc(C(F)(F)F)cc32)CC1 [Cis-(Z)-Flupentixol Dihydrochloride] | 33 | 
10 | CC(C)N1CCN(c2ccc(OCC3COC(Cn4cncn4)(c4ccc(Cl)cc4Cl)O3)cc2)CC1 (stereo not drawn) [Terconazole] | 22 | 
11 | CCOC(=O)Oc1c(OC)cc(C(=O)O[C@@H]2C[C@@H]3CN4CCc5c([nH]c6cc(OC)ccc56)[C@H]4C[C@@H]3[C@H](C(=O)OC)[C@H]2OC)cc1OC [Syrosingopine] | 22 | 
12 | COc1cc2nc(N3CCN(C(=O)C4COc5ccccc5O4)CC3)nc(N)c2cc1OC (stereo not drawn) [Doxazosin Mesylate] | 22 | 
13 | O=C1C(O)=C([C@H]2CC[C@H](c3ccc(Cl)cc3)CC2)C(=O)c2ccccc21 [Atovaquone] | 22 | 
14 | Clofilium Tosylate | 22 | 
15 | Nc1nc2nn[nH]c2c(=O)[nH]1 [Drug 8-Azaguanine, 8-Azaguanine] | 28 | 
16 | COC(=O)C1=C(C)NC(C)=C(C(=O)OC)C1c1ccccc1[N+](=O)[O-] [Nifedipine] | 28 | 
17 | CCN(CC)Cc1cc(Nc2ccnc3cc(Cl)ccc23)ccc1O [Amodiaquin Dihydrochloride Dihydrate] | 23 | 
18 | COc1cc(NC(C)CCCN)c2ncccc2c1 (stereo not drawn) [Primaquine Diphosphate] | 27 | 
19 | O=C1C=C2C=C[C@@H]3C[C@@]2(O1)[C@H]1CCCCN31 [Securinine] | 28 | 
20 | CC(=O)O[C@H]1C(=O)[C@@]2(C)[C@H]([C@H](OC(=O)c3ccccc3)[C@]3(O)C[C@H](OC(=O)[C@H](O)[C@@H](NC(=O)c4ccccc4)c4ccccc4)C(C)=C1C3(C)C)[C@]1(OC(C)=O)CO[C@@H]1C[C@@H]2O [Paclitaxel] | 26 ± 2 | Activity over tested dose range in BioMAP Systems ([1]; tested doses): active over the entire dose range; Signs of toxicity in BioMAP Systems [2]: no signs of toxicity
21 | C[C@]12CC[C@@H]3c4ccc(O)cc4CC[C@H]3[C@@H]1CC[C@@H]2O [17beta-estradiol] |  | Doses at which inactive in BioMAP Systems (lower than) [1]: < 3.3 µM; Dose showing signs of cellular toxicity ([2]; human): 10 µM
22 | Cc1c2oc3c(C)ccc(C(=O)N[C@@H]4C(=O)N[C@H](C(C)C)C(=O)N5CCC[C@H]5C(=O)N(C)CC(=O)N(C)[C@@H](C(C)C)C(=O)O[C@@H]4C)c3nc-2c(C(=O)N[C@@H]2C(=O)N[C@H](C(C)C)C(=O)N3CCC[C@H]3C(=O)N(C)CC(=O)N(C)[C@@H](C(C)C)C(=O)O[C@@H]2C)c(N)c1=O [Actinomycin D] (I: T[dV]P[Sar][NMeV] / II: T[dV]P[Sar][NMeV]; ester I:1-I:C, II:1-II:C; linker I:N-II:N via Actinocin(9to1)) |  | Doses at which inactive in BioMAP Systems (lower than) [1]: < 0.0005 µM; Dose showing signs of cellular toxicity ([2]; BioMAP Systems): 0.004572 µM
23 | C=C(C)[C@@H]1CC[C@]2(CO)CC[C@]3(C)[C@H](CC[C@@H]4[C@@]5(C)CC[C@H](O)C(C)(C)[C@@H]5CC[C@]43C)[C@@H]12 [Betulin] | 31 | 
